Measurements as given in publication PMC5802278, “Molecular and cellular mechanisms of HIF prolyl hydroxylase inhibitors in clinical trials” (Chemical Science, 2017).
pIC50: −log10 of the molar value. Read-outs that look alike come from different tables or passages of the source.

Key:
[1] = system: patients with haemodialysis CKD, Hb 9.5-12.0 g/dL; parameters: method as in ref 43 (a number printed in a supplementary file, which may have a reference list of its own: not looked up in the article's list); conditions: cited from earlier work
FIH = FIH (Homo sapiens, UniProt Q9NWT6); test: LC-MS (RapidFire) FIH hydroxylation assay; type: biochemical
Sequence of FIH (Q9NWT6 whole entry): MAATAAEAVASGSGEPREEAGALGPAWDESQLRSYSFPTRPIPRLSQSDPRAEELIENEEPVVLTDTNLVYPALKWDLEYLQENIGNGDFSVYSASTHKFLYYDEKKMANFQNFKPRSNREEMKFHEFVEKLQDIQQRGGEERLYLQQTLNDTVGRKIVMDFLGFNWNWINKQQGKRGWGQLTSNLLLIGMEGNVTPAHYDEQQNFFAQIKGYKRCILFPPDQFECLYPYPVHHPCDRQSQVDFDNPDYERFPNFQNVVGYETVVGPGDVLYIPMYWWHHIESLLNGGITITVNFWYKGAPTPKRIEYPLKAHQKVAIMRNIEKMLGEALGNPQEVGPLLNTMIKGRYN

PHD2 [2] = biological target: T1, PHD2 (Homo sapiens, UniProt Q9GZT9); test: MALDI-TOF MS PHD hydroxylation assay; type: biochemical; conditions: 1μM isolated recombinant human PHD2, MALDI-TOF MS
T1 sequence (Q9GZT9 whole entry): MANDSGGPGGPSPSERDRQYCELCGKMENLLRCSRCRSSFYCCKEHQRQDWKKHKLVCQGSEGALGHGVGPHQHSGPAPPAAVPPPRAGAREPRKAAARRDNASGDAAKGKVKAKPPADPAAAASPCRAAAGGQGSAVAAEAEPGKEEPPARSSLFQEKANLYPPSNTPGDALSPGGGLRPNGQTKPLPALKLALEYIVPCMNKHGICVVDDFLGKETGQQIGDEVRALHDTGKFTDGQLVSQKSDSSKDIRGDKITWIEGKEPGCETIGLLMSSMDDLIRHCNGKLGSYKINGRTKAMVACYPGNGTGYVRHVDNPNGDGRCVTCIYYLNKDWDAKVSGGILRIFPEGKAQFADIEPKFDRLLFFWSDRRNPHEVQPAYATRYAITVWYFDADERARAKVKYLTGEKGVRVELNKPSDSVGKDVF
Experimental: Protocols for in vitro PHD1–3 MALDI-TOF MS hydroxylation assays[30] and for the AlphaScreen histone demethylase assays[44] were as reported.
Although sharing homologous C-terminal catalytic domains, the N-terminal regions of PHD1–3 vary. […] In vitro inhibition assays of the clinical trial PHD inhibitors (and some of their structurally related analogue) against 1 μM recombinant human PHD1–3 were performed.
Fig. S11. In vitro PHD isoform selectivity profiling of PHD inhibitors. Inhibition of PHD inhibitors against human PHD125 -3 as assayed by MALDI-TOF MS (the protocol is described in Chan et al. ). Eight concentrations were used to obtained dose-response curve for each compound. Data points presented in the graph are mean with standard deviation, n=3. IC50 […]
(1 picture or pasted object on this page, not shown here)

PHD2 [3] = biological target: T1, PHD2; test: LC-MS based RapidFire PHD2 hydroxylation assay; type: biochemical; conditions: 150 nM isolated recombinant human PHD2, LC-MS based RapidFire assay
Experimental: LC-MS PHD2 hydroxylation assays
The PHD2 RF-MS RapidFire liquid chromatography mass spectrometry (RF-MS) assay monitors turnover of a C-terminal oxygenase dependent domain (CODD) peptide substrate
(Pro564) in an endpoint type assay format (typical enzyme incubation time of 15 minutes).
Tris(hydroxymethyl)aminomethane was from Fisher. Ferrous ammonium sulfate (FAS), 2-oxoglutarate (2OG) and L-ascorbic acid were from Sigma Aldrich; solutions of these were prepared freshly each day. All inhibition assays were carried out in 384-well polypropylene plates (Greiner Bio-One). PHD2 assays were performed in assay buffer (50 mM Tris.Cl pH
well polypropylene assay plates. The final assay concentration of DMSO was kept constant at 0.5%. PHD2 protein was prepared at a concentration of 300 nM in assay buffer and 25 μl dispensed across each 384-well assay plate. […]
water containing 0.1% formic acid onto the mass spectrometer. Peptide charge states were monitored in positive mode. Ion chromatogram data were extracted for the +2 charge state and peak area data integrated using RapidFire Integrator software (Agilent). % conversion of the CODD peptide substrate to the +16 hydroxylated peptide was calculated using the equation: % conversion = 100 x hydroxylated / (hydroxylated + non-hydroxylated peptide). IC50 values were determined from non-linear regression plots using GraphPad prism.

[4] = system: pre-dialysis subjects already on Darbepoetin treatment; parameters: method as in ref 40 (a number printed in a supplementary file, which may have a reference list of its own: not looked up in the article's list); conditions: 16 weeks; cited from earlier work
[5] = biological target: T2, PHD2 catalytic domain (residues 181-426) (Homo sapiens, UniProt Q9GZT9); test: NMR KD measurement (2OG displacement or water relaxation); type: binding; parameters: The catalytic domain of human PHD2 (residues 181-426) was used in all; made in house; conditions: water relaxation or 2OG displacement
T2 sequence (Q9GZT9 181-426): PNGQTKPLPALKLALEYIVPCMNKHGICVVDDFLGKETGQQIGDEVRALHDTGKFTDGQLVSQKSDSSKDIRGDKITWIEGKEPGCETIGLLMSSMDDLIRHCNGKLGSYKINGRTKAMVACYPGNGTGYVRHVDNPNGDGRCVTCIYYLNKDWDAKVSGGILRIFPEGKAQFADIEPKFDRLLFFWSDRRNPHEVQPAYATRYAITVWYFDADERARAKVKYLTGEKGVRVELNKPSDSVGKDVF
Experimental: Water-Ligand Observed Gradient SpectroscopY (wLOGSY) experiments were conducted […]
Solvent excitation was achieved using a 16 ms 180 degree selective rectangular shape pulse with 100% truncation level and 1000 points (Squa100.1000) set at the H2O frequency. Water suppression was achieved by a 2 ms Sinc (Sinc1.1000) pulse at the H2O frequency.
2OG displacement experiments were monitored by CPMG-edited 1H NMR using a Bruker […]
supplemented with 60 µM Zn(II) and increasing concentrations of the inhibitors from a […]
(90°x−[τ−180°y−τ−90°y−τ−180°y−τ]n−acq), was applied. Typical experimental parameters were […]
suppression was achieved by presaturation.
For 13C-CODD and […] displacement experiments, 1D Clean In-Phase (CLIP) HSQC with selective 13C-inversion displacement experiments were conducted using a Bruker AV700 instrument. 3 mm MATCH NMR tubes were used (Cortecnet). All experiments were […]
prolyl-ring. 7 The CLIP-HSQC sequence was used for 1D HSQC experiments (without 13C decoupling).8 Relaxation delay was 2s. The 1JCH was set to 160 Hz. A 6.8 ms Q3.1000 180 degree pulse was used and selective irradiation was applied at the selected chemical shift. […]
Samples were prepared by mixing reaction mixture (1 μL) with α-cyano-4-hydrocinnamic acid (CHCA) solution (water:acetonitrile 1:1) (1 μL). Dose-response was assessed in 8-point […]

[6] = biological target: T2, PHD2 catalytic domain (residues 181-426); test: 1H CPMG NMR screening of equimolar enzyme-inhibitor mixture; type: binding; parameters: The catalytic domain of human PHD2 (residues 181-426) was used in all; made in house; conditions: equimolar enzyme-inhibitor mixture (50 µM)
[7] = system: patients with non-dialysis dependent (NDD) CKD (stage 3a/b, 4, or 5); parameters: method as in ref 33 (a number printed in a supplementary file, which may have a reference list of its own: not looked up in the article's list); conditions: starting 450 mg daily, titrated, 20 weeks; cited from earlier work
Hep3b cells = test: Hep3b cell viability / cell density after prolonged treatment; type: cell-based, human
Experimental: Cell seeding and inhibitor treatments were performed in parallel in the same manner as used for the HRE reporter assay (see above). Resazurin (Sigma, R7017) was used for detection of cell viability at a final concentration of 10μg/ml. Cells were incubated with Resazurin at 37°C
and emission wavelength of 590 nm using a FLUOstar Omega Microplate Reader (BMG
Hep3b cell viability after prolonged treatment of PHD inhibitors. Cell viability

O=C(O)CNC(=O)C1C(=O)N(C2CCCCC2)C(=O)N(C2CCCCC2)C1=O [GSK1278863]
mean Hb increase from baseline at week 4 ([1]; 4 mg daily): -0.28 g/dL | mean Hb increase from baseline at week 4 ([1]; 6 mg daily): -0.01 g/dL | mean Hb increase from baseline at week 4 ([1]; 8 mg daily): 0.54 g/dL | mean Hb increase from baseline at week 4 ([1]; 10 mg daily): 0.97 g/dL

O=c1c(-n2ccnn2)c[nH]n1-c1cc(N2CCOCC2)ncn1 [Molidustat]
IC50 for FIH relative to PHD2 (FIH; isolated protein assays, Table 1): > 100 fold | pIC50 (FIH; isolated recombinant enzyme, read-out: IC50 FIH): 4.18 | pIC50 (PHD2 [2]): 5.73 | pIC50 (PHD2 [3]): 5.88 | mean change in Hb to evaluation period [4]: 0.46 g/dL | KD [5]: sub-μM range | binding by 1H CPMG NMR [6]: strong binding

O=C(O)CNC(=O)c1ncc(-c2cccc(Cl)c2)cc1O [Vadadustat]
subjects with Hb increase ≥ 1.2 g/dL from baseline or mean Hb ≥ 11.0 g/dL during last 2 weeks of treatment [7]: 55%

CC(C)(C)OC(=O)c1ccc(-n2[nH]cc(-n3ccnn3)c2=O)nc1 [IOX4]
pIC50 (PHD2 [2]): 6.03 | pIC50 (PHD2 [3]): 6.27 | cell viability after prolonged treatment (Hep3b cells; 10 μM, 24, 48, 72 hours): significant reduction in cell viability | reduction in cell density versus the other 3 inhibitors (judged visually) (Hep3b cells; 10 μM, 72nd hour): 40–50% | KD [5]: sub-μM range | binding by 1H CPMG NMR [6]: strong binding

Cc1nc(C(=O)NCC(=O)O)c(O)c2ccc(Oc3ccccc3)cc12 [FG-4592]
pIC50 (FIH): < 4.00
